Measured values from the supplement of paper PMC11451515.

System: P12-Ichikawa
Test: cell viability relative to DMSO control; higher = less cytotoxic
Settings: 48 h
Procedure, shortened: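 Cells were incubated for 48 h at 37°C before CellTiter-Glo One luminescence was read. The cells were NOMO1 or SEM (500 cells/well) or P12-Ichikawa (1000 cells/well) leukemia cells, adapted for at least four passages in each medium and seeded in 1536-well plates (5 μl). Dosing used library compounds in DMSO applied by pin over 11 threefold points, 47 μM to 0.79 nM. Viability is the per-plate percentage of DMSO wells, with cell-free wells as background.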

[1] = HPLM + 10% dialyzed FBS, 0.000781 µM
[2] = HPLM + 10% dialyzed FBS, 0.00234 µM
[3] = HPLM + 10% dialyzed FBS, 0.00702 µM
[4] = HPLM + 10% dialyzed FBS, 0.0211 µM
[5] = HPLM + 10% dialyzed FBS, 0.0632 µM
[6] = HPLM + 10% dialyzed FBS, 0.19 µM
[7] = HPLM + 10% dialyzed FBS, 0.569 µM
[8] = HPLM + 10% dialyzed FBS, 1.71 µM
[9] = HPLM + 10% dialyzed FBS, 5.12 µM
[10] = HPLM + 10% dialyzed FBS, 15.4 µM
[11] = HPLM + 10% dialyzed FBS, 46.1 µM
[12] = RPMI 5 mM glucose + 10% FBS, 0.000781 µM
[13] = RPMI 5 mM glucose + 10% FBS, 0.00234 µM
[14] = RPMI 5 mM glucose + 10% FBS, 0.00702 µM
[15] = RPMI 5 mM glucose + 10% FBS, 0.0211 µM
[16] = RPMI 5 mM glucose + 10% FBS, 0.0632 µM
[17] = RPMI 5 mM glucose + 10% FBS, 0.19 µM
[18] = RPMI 5 mM glucose + 10% FBS, 0.569 µM
[19] = RPMI 5 mM glucose + 10% FBS, 1.71 µM
[20] = RPMI 5 mM glucose + 10% FBS, 5.12 µM
[21] = RPMI 5 mM glucose + 10% FBS, 15.4 µM
[22] = RPMI 5 mM glucose + 10% FBS, 46.1 µM
[23] = RPMI 5 mM glucose + 10% dialyzed FBS, 0.000781 µM
[24] = RPMI 5 mM glucose + 10% dialyzed FBS, 0.00234 µM
[25] = RPMI 5 mM glucose + 10% dialyzed FBS, 0.00702 µM
[26] = RPMI 5 mM glucose + 10% dialyzed FBS, 0.0211 µM
[27] = RPMI 5 mM glucose + 10% dialyzed FBS, 0.0632 µM
[28] = RPMI 5 mM glucose + 10% dialyzed FBS, 0.19 µM
[29] = RPMI 5 mM glucose + 10% dialyzed FBS, 0.569 µM
[30] = RPMI 5 mM glucose + 10% dialyzed FBS, 1.71 µM
[31] = RPMI 5 mM glucose + 10% dialyzed FBS, 5.12 µM
[32] = RPMI 5 mM glucose + 10% dialyzed FBS, 15.4 µM
[33] = RPMI 5 mM glucose + 10% dialyzed FBS, 46.1 µM

| SMILES | cell viability [1] [%] | cell viability [2] [%] | cell viability [3] [%] | cell viability [4] [%] | cell viability [5] [%] | cell viability [6] [%] | cell viability [7] [%] | cell viability [8] [%] | cell viability [9] [%] | cell viability [10] [%] | cell viability [11] [%] | cell viability [12] [%] | cell viability [13] [%] | cell viability [14] [%] | cell viability [15] [%] | cell viability [16] [%] | cell viability [17] [%] | cell viability [18] [%] | cell viability [19] [%] | cell viability [20] [%] | cell viability [21] [%] | cell viability [22] [%] | cell viability [23] [%] | cell viability [24] [%] | cell viability [25] [%] | cell viability [26] [%] | cell viability [27] [%] | cell viability [28] [%] | cell viability [29] [%] | cell viability [30] [%] | cell viability [31] [%] | cell viability [32] [%] | cell viability [33] [%] |
| --- | --- | --- | --- | --- | --- | --- | --- | --- | --- | --- | --- | --- | --- | --- | --- | --- | --- | --- | --- | --- | --- | --- | --- | --- | --- | --- | --- | --- | --- | --- | --- | --- | --- |
| C[C@H](NC(=O)Cc1cc(F)cc(F)c1)C(=O)N[C@@H]1C(=O)N(C)c2ccccc2-c2ccccc21 | 105 | 118 | 113 | 116 | 113 | 38.4 | 109 | 99.5 | 6.06 | 3.41 | 1.45 | 110 | 111 | 128 | 128 | 116 | 125 | 119 | 122 | 100 | 3.68 | 2.54 | 97.7 | 111 | 112 | 113 | 118 | 117 | 113 | 115 | 84.8 | 3.93 | 1.82 |
| FC1=CC=C(CN2\C=C/C=C(/C(=O)N[C@@H](COC3=CC4=C(NC(=O)N4)C=C3)C5=CC=CC=C5)C2=O)C=C1F | 89.1 | 97.2 | 98.9 | 96.2 | 104 | 98.8 | 97.3 | 89.2 | 76.4 | 70.1 | 64.7 | 82.9 | 90.2 | 85.9 | 86.8 | 88.9 | 88.9 | 86.9 | 72.6 | 53.9 | 50.5 | 44.8 | 81.6 | 89.4 | 90.5 | 94.6 | 89.3 | 94.5 | 79.9 | 76.6 | 58.5 | 54.2 | 45.4 |
| CN1C2=CC(=O)/C(=N/NC(N)=O)C=C2CC1S(=O)(=O)[O-].[Na+] (centres undefined) | 105 | 112 | 112 | 112 | 108 | 113 | 115 | 115 | 110 | 112 | 112 | 103 | 112 | 108 | 112 | 109 | 118 | 118 | 115 | 113 | 112 | 106 | 105 | 108 | 105 | 108 | 111 | 113 | 123 | 112 | 110 | 117 | 110 |
